Measurements as given in patent publication US20260191194A1, “OXABICYCLOALKANE COMPOUNDS, PREPARATION METHOD THEREFOR, AND HERBICIDAL COMPOSITION AND USE THEREOF” (QINGDAO KINGAGROOT CHEMICAL COMPOUND CO., LTD., priority 2022, published 2026).

What was measured:
Format in all cases: in vivo
[1] = test system: Echinochloa crus-galli var. austrojaponensis; experiment: Activity test of compositions, early post-emergence foliage spray (F-EP); conditions: 21 days after treatment
Protocol: (§1) The required active ingredient B was purchased from a reagent company or synthesized by a known method. The technical materials were all dissolved with acetone solvents and diluted with an aqueous solution of 0.1% Tween 80 emulsifier, which were to be used immediately after dilution.
(§2) Weeds were cultivated by a pot culture method. […] Weed seeds with plump and uniform grains were selected, soaked in lukewarm water at 25° C. for 6 hours, and accelerated to germinate in a 28° C. biochemical incubator (in darkness). The weed seeds that had just germinated were evenly placed on the surface of the soil and then covered with 0.5-1 cm soil according to the sizes of seeds.
(§3) The culture was carried out in a controllable sunlight greenhouse at 20 to 30° C., in natural light, and with relative humidity of 57% to 72%.
(§4) Each treatment was repeated 4 times. Four pots with 20 weed seeds sowed per pot were treated each time.
(§5) The agents were used once in total in the experiment. In the stage of 1-2 leaves, the weeds were thinned out to maintain 10 strains per treatment for later use.
(§6) The well-cultured test materials were evenly placed on a platform with an area of 0.5 m^2, and foliage spraying was carried out by the 3WP-2000-type walking spray tower at a dosage of 450 kg/ha and a spray pressure of 0.3 MPa. After all the solution was sprayed, the air valve was closed, and 30 seconds later, the door of the spray tower was opened, and the nutritional bowl was taken out. Then the air valve was opened, and the spray tube was cleaned by spraying 50 ml of water. The test materials were transferred to and routinely cultured in a greenhouse after the treatment.
(§7) A method for investigating absolute numbers was employed. Whole seedlings of survival weeds were cut off with a blade along the soil surface, and the fresh weight of the weeds was weighed using an analytical balance. For dead weeds, the fresh weight thereof was zero.
(§8) The investigation was performed 21 days after the treatment for once in total.
(§9) The theoretical fresh weight inhibition rate of a mixed combination of each treatment was calculated by the Gowing method (E0=X+Y−X*Y/100). […] An optimal ratio was determined according to the actual control effects, characteristics of herbicides, and balance of the formulation. In the formula, X represents the fresh weight inhibition rate of the active ingredient A in a dosage of P; Y represents the fresh weight inhibition rate of the active ingredient B in a dosage of Q. The statistical results are shown in Table 4.

[2] = test system: Oxybasis glauca; experiment: Activity test of compositions, soil sealing treatment (S); conditions: B alone 15 g a.i./ha, 21 days after treatment
Protocol: as §1
(§10) Weeds were cultivated in a controllable sunlight greenhouse at 20 to 30° C., in natural light, and with relative humidity of 57% to 72%. […] The test soil was quantitatively filled to 3/4 of the pot, and then watered from the bottom of the pot to completely wet the soil to saturation. The test weed seeds were accelerated to just germinate, and then evenly and quantitatively sowed on the soil surface, covered with 0.5-1 cm soil according to the sizes of the seeds, and ready for use 72 hours after sowing.
as §4
as §6, with “well-sowed” for “well-cultured”, “water.” for “water. The test materials were transferred to and routinely cultured in a greenhouse after the treatment.”
as §7, §8, §9

[3] = test system: Echinochloa glabrescens; experiment: Activity test of compositions, early post-emergence foliage spray (F-EP); conditions: 21 days after treatment
Protocol: as §1, §2, §3, §4, §5, §6, §7, §8, §9

[4] = test system: Digitaria ischaemum; experiment: Activity test of compositions, soil sealing treatment (S); conditions: 21 days after treatment
From the text: as §1
The test soil was quantitatively filled to 3/4 of the pot, and then watered from the bottom of the pot to completely wet the soil to saturation. The test weed seeds were accelerated to just germinate, and then evenly and quantitatively sowed on the soil surface, covered with 0.5-1 cm soil according to the sizes of the seeds, and ready for use 72 hours after sowing.
as §4
as §6, with “well-sowed” for “well-cultured”, “water.” for “water. The test materials were transferred to and routinely cultured in a greenhouse after the treatment.”
as §7, §8, §9

[5] = test system: Cyperus glomeratus; experiment: as above; conditions: 21 days after treatment
Protocol: as §1, §10, §4
as §6, with “well-sowed” for “well-cultured”, “water.” for “water. The test materials were transferred to and routinely cultured in a greenhouse after the treatment.”
as §7, §8, §9

[6] = test system: Soliva anthemifolia; experiment: Activity test of compositions, early post-emergence foliage spray (F-EP); conditions: 21 days after treatment
Protocol: as §1, §2, §3, §4, §5, §6, §7, §8, §9

[7] = test system: Cyperus glomeratus; experiment: as above; conditions: B alone 300 g a.i./ha, 21 days after treatment
Protocol: as §1, §2, §3, §4, §5, §6, §7, §8, §9

[8] = test system: Echinochloa glabrescens; experiment: Activity test of compositions, soil sealing treatment (S); conditions: 21 days after treatment
Protocol: as §1, §10, §4
as §6, with “well-sowed” for “well-cultured”, “water.” for “water. The test materials were transferred to and routinely cultured in a greenhouse after the treatment.”
as §7, §8, §9

[9] = test system: Arivela viscosa; experiment: as above; conditions: B alone 90 g a.i./ha, 21 days after treatment
Protocol: as §1, §10, §4
as §6, with “well-sowed” for “well-cultured”, “water.” for “water. The test materials were transferred to and routinely cultured in a greenhouse after the treatment.”
as §7, §8, §9

[10] = B alone 30 g a.i./ha (with A 60)

## CCNc1nc(Cl)nc(NC(C)(C)C)n1 [terbuthylazine]
[1]; Echinochloa crus-galli, 504 h, B alone 225 g a.i./ha, read-out: Control effect of B applied alone in a corresponding dose
  pest or weed control at 225 g/ha: 48.4%

## CCn1ncc(C(=O)c2ccc(S(C)(=O)=O)c(COCC(F)(F)F)c2Cl)c1OC(=O)c1cn(C)nc1C [fenpyrazone]
[1]; [10]
  Control effect of B applied alone in a corresponding dose: 53.1%

## CS(=O)(=O)c1ccc(C(=O)C2C(=O)CCCC2=O)c(Cl)c1COCC1CCCO1 (centres unmarked) [tefuryltrione]
[1]; B alone 15 g a.i./ha
  Control effect of B applied alone in a corresponding dose: 51.7%

## Cc1ccn2nc(S(=O)(=O)Nc3c(F)cccc3F)nc2n1 [flumetsulam]
[2]
  Control effect of B applied alone in a corresponding dose: 57.9

## CCCCOC(=O)[C@@H](C)Oc1ccc(Oc2ccc(C#N)cc2F)cc1 [cyhalofop-butyl]
[3]; B alone 150 g a.i./ha
  Control effect of B applied alone in a corresponding dose: 46.6%

## CCC(CC)Nc1c([N+](=O)[O-])cc(C)c(C)c1[N+](=O)[O-] [pendimethalin]
[4]; B alone 375 g a.i./ha
  Control effect of B applied alone in a corresponding dose: 65.7

## CC(C)c1ccc(NC(=O)N(C)C)cc1 [isoproturon]
[1]; Echinochloa crus-galli, 504 h, B alone 300 g a.i./ha, read-out: Control effect of B applied alone in a corresponding dose
  pest or weed control at 300 g/ha: 31.3%

## CCOC(=O)c1cnn(C)c1S(=O)(=O)NC(=O)Nc1nc(OC)cc(OC)n1 [pyrazosulfuronethyl, pyrazosulfuron-ethyl]
[5]; B alone 7.5 g a.i./ha
  Control effect of B applied alone in a corresponding dose: 29.8%

## COc1c(Cl)ccc(-c2nc(C(=O)OCc3ccccc3)c(Cl)c(N)c2F)c1F [florpyrauxifenbenzyl, florpyrauxifen-benzyl]
[6]; B alone 7.5 g a.i./ha
  Control effect of B applied alone in a corresponding dose: 60.2%

## CC(C)CCCCCOC(=O)COc1ccc(Cl)cc1Cl [2,4-D-isooctyl]
[6]; B alone 225 g a.i./ha
  Control effect of B applied alone in a corresponding dose: 61.4%

## CCCC(=NOCC(C)Oc1ccc(Cl)cc1)C1=C(O)CC(C2CCCSC2)CC1=O (centres unmarked) [profoxydim]
[3]; B alone 45 g a.i./ha
  Control effect of B applied alone in a corresponding dose: 54.7%

## CS(=O)(=O)c1ccc(C(=O)C2=C(Sc3ccccc3)C3CCC(C3)C2=O)c(Cl)c1 (centres unmarked) [benzobicyclon]
[1]; B alone 60 g a.i./ha
  Control effect of B applied alone in a corresponding dose: 48.7%

## CCNc1nc(Cl)nc(NC(C)C)n1 [atrazine]
[1]; Echinochloa crus-galli, 504 h, B alone 450 g a.i./ha, read-out: Control effect of B applied alone in a corresponding dose
  pest or weed control at 450 g/ha: 43.4%

## CC(C)N(C(=O)SCC(Cl)=C(Cl)Cl)C(C)C [triallate]
[4]; B alone 300 g a.i./ha
  Control effect of B applied alone in a corresponding dose: 38.4

## CC(C)N1C(=O)c2ccccc2NS1(=O)=O [bentazone]
[7]
  Control effect of B applied alone in a corresponding dose: 43.8

## CCCOCCN(C(=O)CCl)c1c(CC)cccc1CC [pretilachlor]
[8]; B alone 150 g a.i./ha
  Control effect of B applied alone in a corresponding dose: 43.6

## CC[C@H](Oc1ccc(F)c(C(F)(F)F)c1)C(=O)NCc1ccccc1 [beflubutamid-M]
[9]
  Control effect of B applied alone in a corresponding dose: 55.2%

## COP(=S)(OC)SCC(=O)N(c1ccc(Cl)cc1)C(C)(C)C [anilofos]
[8]; B alone 75 g a.i./ha
  Control effect of B applied alone in a corresponding dose: 37.2

## oxadiargyl
[5]; B alone 45 g a.i./ha
  Control effect of B applied alone in a corresponding dose: 42.5%

## CCC(C)Nc1c([N+](=O)[O-])cc(C(C)(C)C)cc1[N+](=O)[O-] (centres unmarked) [butralin]
[4]; B alone 900 g a.i./ha
  Control effect of B applied alone in a corresponding dose: 60.2

## Cc1nn(C)cc1C(=O)Oc1c(C(=O)c2ccc(C(F)(F)F)cc2S(C)(=O)=O)c(C)nn1C [bipyrazone]
[1]; [10]
  Control effect of B applied alone in a corresponding dose: 52.7%

## CCOCN(C(=O)CCl)c1c(C)cccc1CC [acetochlor]
[4]; B alone 300 g a.i./ha
  Control effect of B applied alone in a corresponding dose: 41.3

## CCCCOCN(C(=O)CCl)c1c(CC)cccc1CC [butachlor]
[8]; B alone 300 g a.i./ha
  Control effect of B applied alone in a corresponding dose: 41.3
